Source: ChEMBL document CHEMBL2062415, “Steroids from Commiphora mukul display antiproliferative effect against human prostate cancer PC3 cells via induction of apoptosis” (Bioorg Med Chem Lett, 2012)
The source made the active and inactive calls. No cut-off for these calls is given here.

Legend:
[1] = test system: K562; test: Induction of apoptosis in human K562 cells assessed as necrotic cells at 10 uM after 48 hrs by annexinV/propidium iodide staining-based FITC analysis (reference value: 1.19%); assay type: functional
[2] = test system: MCF7; test: Induction of apoptosis in human MCF7 cells assessed as late apoptotic cells at 10 uM after 48 hrs by annexinV/propidium iodide staining-based FITC analysis (reference value: 3.57%); assay type: functional
[3] = test system: PC-3; test: Cell cycle arrest in human PC3 cells assessed as accumulation at G0/G1 phase at 5 uM after 48 hrs by propidium iodide staining-based flow cytometric analysis relative to control; assay type: functional
[4] = test system: K562; test: Induction of apoptosis in human K562 cells assessed as early apoptotic cells at 1 uM after 48 hrs by annexinV/propidium iodide staining-based FITC analysis (reference value: 2.08%); assay type: functional
[5] = test system: PC-3; test: Cell cycle arrest in human PC3 cells assessed as accumulation at S phase at 20 uM after 48 hrs by propidium iodide staining-based flow cytometric analysis relative to control; assay type: functional
[6] = test system: DU-145; test: Induction of apoptosis in human DU145 cells assessed as late apoptotic cells at 10 uM after 48 hrs by annexinV/propidium iodide staining-based FITC analysis (reference value: 2.78%); assay type: functional
[7] = test system: PC-3; test: Cell cycle arrest in human PC3 cells assessed as accumulation at G2/M phase after 48 hrs by propidium iodide staining-based flow cytometric analysis; assay type: functional
[8] = test system: PC-3; test: Increase in Bax protein level in human PC3 cells after 48 hrs by Western blot analysis; assay type: functional, cell-based
[9] = test system: K562; test: Induction of apoptosis in human K562 cells assessed as accumulation at G0/G1 phase at 5 uM after 48 hrs by propidium iodide staining-based flow cytometric analysis (reference value: 38.61%); assay type: functional
[10] = test system: DU-145; test: Induction of apoptosis in human DU145 cells assessed as accumulation at S phase at 20 uM after 48 hrs by propidium iodide staining-based flow cytometric analysis (reference value: 11.48%); assay type: functional
[11] = test system: PC-3; test: Induction of apoptosis in human PC3 cells assessed as cleavage of caspase 3 at 5 to 20 uM after 48 hrs by Western blot analysis; assay type: functional, cell-based
[12] = test system: MCF7; test: Induction of apoptosis in human MCF7 cells assessed as accumulation at G2/M phase at 5 uM after 48 hrs by propidium iodide staining-based flow cytometric analysis (reference value: 9.55%); assay type: functional
[13] = test system: MCF7; test: Induction of apoptosis in human MCF7 cells assessed as accumulation at G0/G1 phase at 10 uM after 48 hrs by propidium iodide staining-based flow cytometric analysis (reference value: 67.46%); assay type: functional
[14] = test system: K562; test: Induction of apoptosis in human K562 cells assessed as accumulation at S phase at 5 uM after 48 hrs by propidium iodide staining-based flow cytometric analysis (reference value: 45.67%); assay type: functional
[15] = test system: K562; test: Cytotoxicity against human K562 cells assessed as cell viability at 10 uM after 24 hrs by MTT assay; assay type: functional; details: K562, 24 h, read-out: Activity
[16] = test system: DU-145; test: Induction of apoptosis in human DU145 cells assessed as early apoptotic cells at 20 uM after 48 hrs by annexinV/propidium iodide staining-based FITC analysis (reference value: 2.34%); assay type: functional
[17] = test system: MCF7; test: Induction of apoptosis in human MCF7 cells assessed as early apoptotic cells at 20 uM after 48 hrs by annexinV/propidium iodide staining-based FITC analysis (reference value: 5.48%); assay type: functional
[18] = test system: K562; test: Induction of apoptosis in human K562 cells assessed as accumulation at S phase at 10 uM after 48 hrs by propidium iodide staining-based flow cytometric analysis (reference value: 45.67%); assay type: functional
[19] = test system: K562; test: Induction of apoptosis in human K562 cells assessed as early apoptotic cells at 10 uM after 48 hrs by annexinV/propidium iodide staining-based FITC analysis (reference value: 2.08%); assay type: functional
[20] = test system: MCF7; test: Induction of apoptosis in human MCF7 cells assessed as necrotic cells at 5 uM after 48 hrs by annexinV/propidium iodide staining-based FITC analysis (reference value: 8.28%); assay type: functional
[21] = test system: MCF7; test: Induction of apoptosis in human MCF7 cells assessed as late apoptotic cells at 5 uM after 48 hrs by annexinV/propidium iodide staining-based FITC analysis (reference value: 3.57%); assay type: functional
[22] = test system: K562; test: Induction of apoptosis in human K562 cells assessed as accumulation at G2/M phase at 1 uM after 48 hrs by propidium iodide staining-based flow cytometric analysis (reference value: 15.72%); assay type: functional
[23] = test system: MCF7; test: Induction of apoptosis in human MCF7 cells assessed as early apoptotic cells at 10 uM after 48 hrs by annexinV/propidium iodide staining-based FITC analysis (reference value: 5.48%); assay type: functional
[24] = test system: K562; test: Induction of apoptosis in human K562 cells assessed as accumulation at G0/G1 phase at 10 uM after 48 hrs by propidium iodide staining-based flow cytometric analysis (reference value: 38.61%); assay type: functional
[25] = test system: DU-145; test: Induction of apoptosis in human DU145 cells assessed as accumulation at S phase at 10 uM after 48 hrs by propidium iodide staining-based flow cytometric analysis (reference value: 11.48%); assay type: functional
[26] = test system: PC-3; test: Inhibition of cyclin B1 protein expression in human PC3 cells at 20 uM after 48 hrs by Western blot analysis; assay type: functional, cell-based
[27] = test system: PC-3; test: Induction of apoptosis in human PC3 cells assessed as necrotic cells at 5 uM after 48 hrs by annexinV/propidium iodide staining-based FITC analysis relative to control; assay type: functional
[28] = test system: PC-3; test: Induction of apoptosis in human PC3 cells assessed as early apoptotic cells at 20 uM after 48 hrs by annexinV/propidium iodide staining-based FITC analysis relative to control; assay type: functional
[29] = test system: PC-3; test: Cell cycle arrest in human PC3 cells assessed as accumulation at G2/M phase at 20 uM after 48 hrs by propidium iodide staining-based flow cytometric analysis relative to control; assay type: functional
[30] = test system: MCF7; test: Induction of apoptosis in human MCF7 cells assessed as accumulation at S phase at 20 uM after 48 hrs by propidium iodide staining-based flow cytometric analysis (reference value: 22.99%); assay type: functional
[31] = test system: K562; test: Induction of apoptosis in human K562 cells assessed as early apoptotic cells at 5 uM after 48 hrs by annexinV/propidium iodide staining-based FITC analysis (reference value: 2.08%); assay type: functional
[32] = test system: DU-145; test: Induction of apoptosis in human DU145 cells assessed as accumulation at G2/M phase at 40 uM after 48 hrs by propidium iodide staining-based flow cytometric analysis (reference value: 16.14%); assay type: functional
[33] = test system: DU-145; test: Induction of apoptosis in human DU145 cells assessed as early apoptotic cells at 40 uM after 48 hrs by annexinV/propidium iodide staining-based FITC analysis (reference value: 2.34%); assay type: functional
[34] = test system: MCF7; test: Induction of apoptosis in human MCF7 cells assessed as accumulation at S phase at 10 uM after 48 hrs by propidium iodide staining-based flow cytometric analysis (reference value: 22.99%); assay type: functional
[35] = test system: DU-145; test: Induction of apoptosis in human DU145 cells assessed as accumulation at G2/M phase at 10 uM after 48 hrs by propidium iodide staining-based flow cytometric analysis (reference value: 16.14%); assay type: functional
[36] = test system: PC-3; test: Cell cycle arrest in human PC3 cells assessed as accumulation at G2/M phase at 5 uM after 48 hrs by propidium iodide staining-based flow cytometric analysis relative to control; assay type: functional

Question: How did the Activity [1] turn out when `CC[C@H](/C=C/[C@@H](C)[C@H]1CC[C@H]2[C@H]3[C@H]([C@H](O)C[C@]12C)[C@@]1(C)CC[C@H](O)CC1=C[C@H]3O)C(C)C` was run?
Answer: 0.78%

Question: And the Activity [2]?
Answer: 4.42%

Question: And the Activity [3]?
Answer: 59%

Question: And the Activity [4]?
Answer: 1.99%

Question: And the Activity [5]?
Answer: 14.34%

Question: What about the Activity [6] of the same molecule?
Answer: 2.48%

Question: What about the Activity [7] of the same molecule?
Answer: Dose-dependent effect

Question: What about the Activity [8] of the same molecule?
Answer: Dose-dependent effect

Question: And the Activity [9]?
Answer: 40.79%

Question: And the Activity [10]?
Answer: 11.38%

Question: And the Activity [11]?
Answer: Active

Question: And the Activity [12]?
Answer: 8.56%

Question: And the Activity [13]?
Answer: 71.05%

Question: What about the Activity [14] of the same molecule?
Answer: 45.5%

Question: What about the viability at 10 µM [15] of the same molecule?
Answer: 32%

Question: And the Activity [16]?
Answer: 2.12%

Question: What about the Activity [17] of the same molecule?
Answer: 9.91%

Question: What about the Activity [18] of the same molecule?
Answer: 48.25%

Question: What about the Activity [19] of the same molecule?
Answer: 6.1%

Question: And the Activity [20]?
Answer: 3.47%

Question: What about the Activity [21] of the same molecule?
Answer: 3.47%

Question: And the Activity [22]?
Answer: 13.08%

Question: What about the Activity [23] of the same molecule?
Answer: 6.81%

Question: What about the Activity [24] of the same molecule?
Answer: 39.64%

Question: And the Activity [25]?
Answer: 12.94%

Question: And the inhibition [26]?
Answer: Active

Question: What about the Activity [27] of the same molecule?
Answer: 1.87%

Question: And the Activity [28]?
Answer: 3.27%

Question: What about the Activity [29] of the same molecule?
Answer: 29.84%

Question: What about the Activity [30] of the same molecule?
Answer: 19.37%

Question: And the Activity [31]?
Answer: 3.77%

Question: What about the Activity [32] of the same molecule?
Answer: 35.85%

Question: And the Activity [33]?
Answer: 3.13%

Question: And the Activity [34]?
Answer: 18.92%

Question: What about the Activity [35] of the same molecule?
Answer: 21.4%

Question: And the Activity [36]?
Answer: 14.11%
